{
  "source": "patent US7452688B2",
  "about": "“Transformed cell with enhanced sensitivity to antifungal compound and use thereof” (Sumitomo Chemical Company, Limited, priority 2002, dated 2008)",
  "assay_type_in_all_cases": "cell-based, Saccharomyces cerevisiae",
  "key": {"[1]": {"system": "transformed budding yeast TM182-FoOS1", "test": "Antifungal compound sensitivity test of transformed budding yeast TM182-FoOS1 (Example 13)", "conditions": "for Degree of growth of budding yeast TM182-FoOS1 Gal-Ura-Leu medium: control medium, 30° C. 51 hours; for Degree of growth of budding yeast TM182-FoOS1 Gul-Ura-Leu medium: 30° C. 25 hours", "procedure": "Similarly, the transformed budding yeast TM182-FoOS1 prepared in Example 12 was cultured at 30° C. for 18 hours in a Glu-Ura-Leu medium. The absorbance at 600 nm of the grown transformed budding yeast in a cell suspension was measured, and a cell suspension diluted with sterilized distilled water to the absorbance of 0.1 was prepared. Further, a cell suspension in which the transformed budding yeast TM182-FoOS1 was diluted 50-fold with a Glu-Ura-Leu medium and, as a control, a cell suspension in which the yeast was diluted 50-fold with a Gal-Ura-Leu medium were prepared.\nA solution in which each of Compounds (1) to (3) was dissolved in dimethylsulfoxide (DMSO) to the concentration of 600 ppm, a solution in which each of Compounds […] and (5) was dissolved in dimethylsulfoxide (DMSO) to the concentration of 2000 ppm, and a solution in which each of Compounds (6) and (7) was dissolved in dimethylsulfoxide (DMSO) to the concentration of 20 ppm were prepared, and two microplates were prepared in which each 2.0 μL per well of the Compound-DMSO solution and DMSO as a control were dispensed into 2 wells. In one microplate among them, each 100 μL of cell suspensions of the transformed budding yeast TM182-FoOS1 which had been prepared by dilution with a Glu-Ura-Leu medium as described above was dispensed, and cultured by allowing to stand at 30° C. for 25 hours. In another microplate, as described above, as a control, each 100 μL of cell suspensions of the transformed budding yeast TM182-FoOS1 which had been prepared by dilution with a Gal-Ura-Leu medium was dispensed, and cultured at 30° C. for 51 hours. After culturing, the absorbance at 600 nm of each well was measured with a microplate reader.\n(§1) A degree of growth of the transformed budding yeast is expressed as a relative value in percentage, letting the absorbance at 600 nm at the concentration of the Compound of 0 ppm to be 100. It was confirmed that an inhibiting degree of growth of the transformed budding yeast TM182-FoOS1 by each test substance was grater than an inhibiting degree of growth of the transformed budding yeast AH22-FoOS1 by each test substance, and the transformed budding yeast TM182-FoOS1 was a transformed cell with the enhanced sensitivity to an antifungal compound as compared with the transformed budding yeast AH22-FoOS1."}, "[2]": {"system": "transformed budding yeast AH22-FoOS1", "test": "Antifungal compound sensitivity test, transformed budding yeast AH22-FoOS1 (Example 13)", "conditions": "30° C. 26.5 hours, relative value in percentage", "procedure": "(§2) The transformed budding yeast AH22-FoOS1 prepared in Example 12 was cultured while shaking at 30° C. for 18 hours in a Glu-Leu medium. As a control, the AH22 strain was similarly cultured while shaking at 30° C. for 18 hours in a Glu medium. The absorbance at 600 nm of each grown transformed budding yeast in a cell suspension was measured, and cell suspension diluted with sterilized distilled water to the absorbance of 0.1 was prepared. Further, a cell suspension in which the aforementioned cell suspension of the transformed budding yeast AH22-FoOS1 was diluted 50-fold with a Glu-Leu medium, and a cell suspension in which the aforementioned cell suspension of the AH22 strain was diluted 50-fold with a Glu medium were prepared.\n(§3) A solution in which each of Compounds (1) to (3) was dissolved in dimethylsulfoxide (DMSO) to the concentration of 600 ppm, a solution in which each of Compounds (4) and (5) was dissolved in dimethylsulfoxide (DMSO) to the concentration of 2000 ppm, and a solution in which Compounds (6) and (7) was dissolved in dimethylsulfoxide (DMSO) to the concentration of 20 ppm were prepared, and two microplates were prepared in which each 1.0 μL per well of the Compound solution and DMSO as a control were dispensed. In one microplate among them, each. 100 μL of cell suspensions of the transformed budding yeast AH22-FoOS1 which had been prepared by dilution as described above was dispensed, and cultured by allowing to stand at 30° C. for 26.5 hours. In another microplate, each 100 μL of cell suspensions of the control yeast AH22 strain which had been prepared by dilution as described above was dispensed, and cultured by allowing to stand at 30° C. for 24.5 hours. After culturing, the absorbance at 600 nm of each well was measured with a microplate reader.\nas §1"}, "[3]": {"system": "AH22 strain", "test": "Antifungal compound sensitivity test, control yeast AH22 strain (Example 16)", "conditions": "30° C. 24.5 hours, relative value in percentage", "procedure": "as §2, with “AH22-StOS1” for “AH22-FoOS1”, “15” for “12”\nas §3, with “of 6” for “of 600”, “them, each” for “them, each.”, “yeast AH22-StOS1” for “yeast AH22-FoOS1”, “for 28” for “for 26.5”\nas §1, with “TM182-StOS1” for “TM182-FoOS1”, “AH22-StOS1” for “AH22-FoOS1”, “AH22-StOS1.” for “AH22-FoOS1.”"}},
  "data": [
    {"molecule": "C=CC1(C)OC(=O)N(c2cc(Cl)cc(Cl)c2)C1=O", "note": "(stereo not shown) [Compound (3), Vinclozolin]", "values": [
      {"measurement": "Degree of growth of budding yeast TM182-FoOS1 Gal-Ura-Leu medium", "setting": "[1]; final concentration 6 ppm", "value": 99, "unit": "%"},
      {"measurement": "Degree of growth of budding yeast TM182-FoOS1 Gul-Ura-Leu medium", "setting": "[1]; final concentration 6 ppm", "value": 22, "unit": "%"},
      {"measurement": "Degree of growth of budding yeast AH22-FoOS1 Glu-Leu medium", "setting": "[2]; final concentration 6 ppm", "value": 86, "unit": "%"},
      {"measurement": "Degree of growth of budding yeast AH22 Glu medium", "setting": "[3]; final concentration 0.6 ppm", "value": 96, "unit": "%"}
    ]},
    {"molecule": "N#Cc1c[nH]cc1-c1cccc2c1OC(F)(F)O2", "note": "[Compound (6), Fludioxonil]", "values": [
      {"measurement": "Degree of growth of budding yeast TM182-FoOS1 Gal-Ura-Leu medium", "setting": "[1]; final concentration 0.2 ppm", "value": 99, "unit": "%"},
      {"measurement": "Degree of growth of budding yeast TM182-FoOS1 Gul-Ura-Leu medium", "setting": "[1]; final concentration 0.2 ppm", "value": 7, "unit": "%"},
      {"measurement": "Degree of growth of budding yeast AH22-FoOS1 Glu-Leu medium", "setting": "[2]; final concentration 0.2 ppm", "value": 69, "unit": "%"},
      {"measurement": "Degree of growth of budding yeast AH22 Glu medium", "setting": "[3]; final concentration 0.2 ppm", "value": 92, "unit": "%"}
    ]},
    {"molecule": "O=[N+]([O-])c1c(Cl)c(Cl)c(Cl)c(Cl)c1Cl", "note": "[Compound (4), Quintozene]", "values": [
      {"measurement": "Degree of growth of budding yeast TM182-FoOS1 Gal-Ura-Leu medium", "setting": "[1]; final concentration 20 ppm", "value": 104, "unit": "%"},
      {"measurement": "Degree of growth of budding yeast TM182-FoOS1 Gul-Ura-Leu medium", "setting": "[1]; final concentration 20 ppm", "value": 20, "unit": "%"},
      {"measurement": "Degree of growth of budding yeast AH22-FoOS1 Glu-Leu medium", "setting": "[2]; final concentration 20 ppm", "value": 90, "unit": "%"},
      {"measurement": "Degree of growth of budding yeast AH22 Glu medium", "setting": "[3]; final concentration 20 ppm", "value": 96, "unit": "%"}
    ]},
    {"molecule": "CC12CC1(C)C(=O)N(c1cc(Cl)cc(Cl)c1)C2=O", "note": "(stereo not shown) [Compound (1), Procymidone]", "values": [
      {"measurement": "Degree of growth of budding yeast TM182-FoOS1 Gal-Ura-Leu medium", "setting": "[1]; final concentration 6 ppm", "value": 116, "unit": "%"},
      {"measurement": "Degree of growth of budding yeast TM182-FoOS1 Gul-Ura-Leu medium", "setting": "[1]; final concentration 6 ppm", "value": 26, "unit": "%"},
      {"measurement": "Degree of growth of budding yeast AH22-FoOS1 Glu-Leu medium", "setting": "[2]; final concentration 6 ppm", "value": 81, "unit": "%"},
      {"measurement": "Degree of growth of budding yeast AH22 Glu medium", "setting": "[3]; final concentration 0.6 ppm", "value": 99, "unit": "%"}
    ]},
    {"molecule": "COP(=S)(OC)Oc1c(Cl)cc(C)cc1Cl", "note": "[Compound (5), Tolclofos-methyl]", "values": [
      {"measurement": "Degree of growth of budding yeast TM182-FoOS1 Gal-Ura-Leu medium", "setting": "[1]; final concentration 20 ppm", "value": 80, "unit": "%"},
      {"measurement": "Degree of growth of budding yeast TM182-FoOS1 Gul-Ura-Leu medium", "setting": "[1]; final concentration 20 ppm", "value": 57, "unit": "%"},
      {"measurement": "Degree of growth of budding yeast AH22-FoOS1 Glu-Leu medium", "setting": "[2]; final concentration 20 ppm", "value": 71, "unit": "%"},
      {"measurement": "Degree of growth of budding yeast AH22 Glu medium", "setting": "[3]; final concentration 20 ppm", "value": 80, "unit": "%"}
    ]},
    {"molecule": "N#Cc1c[nH]cc1-c1cccc(Cl)c1Cl", "note": "[Compound (7), Fenpiclonil]", "values": [
      {"measurement": "Degree of growth of budding yeast TM182-FoOS1 Gal-Ura-Leu medium", "setting": "[1]; final concentration 0.2 ppm", "value": 89, "unit": "%"},
      {"measurement": "Degree of growth of budding yeast TM182-FoOS1 Gul-Ura-Leu medium", "setting": "[1]; final concentration 0.2 ppm", "value": 21, "unit": "%"},
      {"measurement": "Degree of growth of budding yeast AH22-FoOS1 Glu-Leu medium", "setting": "[2]; final concentration 0.2 ppm", "value": 88, "unit": "%"},
      {"measurement": "Degree of growth of budding yeast AH22 Glu medium", "setting": "[3]; final concentration 0.2 ppm", "value": 91, "unit": "%"}
    ]},
    {"molecule": "CC(C)NC(=O)N1CC(=O)N(c2cc(Cl)cc(Cl)c2)C1=O", "note": "[Compound (2), Iprodione]", "values": [
      {"measurement": "Degree of growth of budding yeast TM182-FoOS1 Gal-Ura-Leu medium", "setting": "[1]; final concentration 6 ppm", "value": 87, "unit": "%"},
      {"measurement": "Degree of growth of budding yeast TM182-FoOS1 Gul-Ura-Leu medium", "setting": "[1]; final concentration 6 ppm", "value": 55, "unit": "%"},
      {"measurement": "Degree of growth of budding yeast AH22-FoOS1 Glu-Leu medium", "setting": "[2]; final concentration 6 ppm", "value": 91, "unit": "%"},
      {"measurement": "Degree of growth of budding yeast AH22 Glu medium", "setting": "[3]; final concentration 0.6 ppm", "value": 94, "unit": "%"}
    ]}
  ]
}
